Laboratory results reported in US20170037028A1 (BAYER PHARMA AKTIENGESELLSCHAFT, priority 2013, published 2017).

Each compound was assayed against T1, GLUT1 (Homo sapiens, UniProt P11166) (assay: Indirect measurement of GLUT1 activity by quantification of intracellular ATP levels (glucose induced ATP increase)). Conditions: read-out: IC50 regarding glucose induced ATP increase (GLUT1 inhibition).
T1 sequence (P11166 1-492): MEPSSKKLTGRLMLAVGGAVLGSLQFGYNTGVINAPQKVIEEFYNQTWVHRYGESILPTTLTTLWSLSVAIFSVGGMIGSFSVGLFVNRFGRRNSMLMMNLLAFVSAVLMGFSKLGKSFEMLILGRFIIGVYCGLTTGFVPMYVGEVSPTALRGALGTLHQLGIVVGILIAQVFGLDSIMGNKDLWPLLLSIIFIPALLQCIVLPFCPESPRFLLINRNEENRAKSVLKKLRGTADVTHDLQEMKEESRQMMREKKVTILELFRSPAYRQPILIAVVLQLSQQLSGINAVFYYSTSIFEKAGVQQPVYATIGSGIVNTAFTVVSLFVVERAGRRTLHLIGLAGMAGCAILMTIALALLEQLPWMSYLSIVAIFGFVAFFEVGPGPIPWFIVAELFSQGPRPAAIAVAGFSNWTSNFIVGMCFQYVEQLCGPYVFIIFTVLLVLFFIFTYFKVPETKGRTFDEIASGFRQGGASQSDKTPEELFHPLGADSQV
Format: cell-based
Set-up: endogenous in cells; host or cells: DLD1 or CHO-K1
How it was run: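 Intracellular ATP was measured by CellTiter-Glo luminescence as an indirect readout of transport: glucose-driven for GLUT1, fructose-driven for GLUT2. DLD1 or CHO-K1 cells were used alongside an oxidative phosphorylation inhibitor. Beforehand, cells were held overnight in glucose-free 1% FCS medium to deplete ATP.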

SMILES | IC50 [nM]
Cc1nn(Cc2ccc(C(=O)NCc3ccccc3)cn2)c(C)c1NC(=O)c1cc(C(F)(F)F)nc2ccc(Br)cc12 [Example 1151] | 128
CCc1nc(Cn2nc(C(F)(F)F)c(NC(=O)c3cc(C(N)=O)nc4cc(F)ccc34)c2C)no1 [Example 1548] | 26.5
Cc1nn(CCN2CCOCC2)c(C)c1NC(=O)c1cc(C(F)(F)F)nc2ccc(Br)cc12 [Example 1218] | 694
Cc1nn(Cc2ccc(C(=O)NCCF)cc2)c(C)c1NC(=O)c1cc(C(F)(F)F)nc2ccc(Br)cc12 [Example 1030] | 3.2
COc1cc(C(=O)Nc2c(C)nn(Cc3cccc(C)c3)c2C)c2ccccc2n1 [Example 76, N-[3,5-dimethyl-1-(3-methylbenzyl)-1H-pyrazol-4-yl]-2-methoxyquinoline-4-carboxamide] | 188
Cc1nn(Cc2ccc(F)cc2)c(C)c1NC(=O)c1cc(C2CC2)nc2cc(Br)ccc12 [Example 100, 7-bromo-2-cyclopropyl-N-[1-(4-fluorobenzyl)-3,5-dimethyl-1H-pyrazol-4-yl]quinoline-4-carboxamide] | 371
Cc1nn(Cc2ccc(C#N)cn2)c(C)c1NC(=O)c1cc(C(N)=O)nc2cc(F)ccc12 [Example 356, N^4-{1-[(5-cyanopyridin-2-yl)methyl]-3,5-dimethyl-1H-pyrazol-4-yl}-7-fluoroquinoline-2,4-dicarboxamide] | 9.3
Cc1nn(Cc2ccc(C#N)cc2)c(C)c1NC(=O)c1cc(C(N)=O)nc2cc(F)cc(F)c12 [Example 253, N^4-[1-(4-cyanobenzyl)-3,5-dimethyl-1H-pyrazol-4-yl]-5,7-difluoroquinoline-2,4-dicarboxamide] | 0.5
Cc1nn(Cc2ccc(C(=O)NCc3cccc(O)c3)cc2)c(C)c1NC(=O)c1cc(C(F)(F)F)nc2ccc(Br)cc12 [Example 1209] | 502
Cc1nn(Cc2ccc(F)cc2)c(C)c1NC(=O)c1cc(C(F)(F)F)nc2ccc(C(N)=O)cc12 [Example 1294] | 8120
Cc1c(NC(=O)c2cc(C(N)=O)nc3ccc(Br)cc23)c(C(F)(F)F)nn1Cc1ccc(CC#N)cc1 [Example 1595] | 1.6
Cc1nn(CCc2ccc(F)cc2)c(C)c1NC(=O)c1cc(C(N)=O)nc2ccccc12 [Example 1100] | 42.1
CCc1ccc(Cn2nc(C(F)(F)F)c(NC(=O)c3cc(C(N)=O)nc4cc(F)c(Cl)cc34)c2C)cc1 [Example 1415] | 3.3
Cc1nn(Cc2ccc(C(=O)NCCOc3ccccc3)cc2)c(C)c1NC(=O)c1cc(C(F)(F)F)nc2ccc(Br)cc12 [Example 1137] | 100
Cc1ccccc1Cn1nc(C(F)(F)F)c(NC(=O)c2cc(C(N)=O)nc3cc(F)c(Cl)cc23)c1C [Example 1497] | 4.3
Cc1nn(CC2CCN(C(=O)OC(C)(C)C)CC2)c(C)c1NC(=O)c1cc(C(F)(F)F)nc2ccc(Br)cc12 [Example 1201] | 428
Cc1c(NC(=O)c2cc(C(N)=O)nc3ccc(Cl)cc23)c(C(F)(F)F)nn1Cc1ccc(C#N)cc1 [Example 248, 6-chloro-N^4-[1-(4-cyanobenzyl)-5-methyl-3-(trifluoromethyl)-1H-pyrazol-4-yl]quinoline-2,4-dicarboxamide] | 0.6
Cc1nn(Cc2ccc(F)c(F)c2)c(C)c1NC(=O)c1cc(C(F)(F)F)nc2cc(Br)ccc12 [Example 189, 7-bromo-N-[1-(3,4-difluorobenzyl)-3,5-dimethyl-1H-pyrazol-4-yl]-2-(trifluoromethyl)quinoline-4-carboxamide] | 165
Cc1c(NC(=O)c2cc(C(F)(F)F)nc3ccc(Br)cc23)c(C(F)(F)F)nn1Cc1ccc(C#N)cc1F [Example 1358] | 4.3
CCN(CC)C(=O)c1ccc(Cn2nc(C)c(NC(=O)c3cc(C(F)(F)F)nc4ccc(Br)cc34)c2C)cc1 [Example 1203] | 433
Cc1c(NC(=O)c2cc(C(=O)NCCCO)nc3cc(F)ccc23)c(C(F)(F)F)nn1Cc1ccc(C#N)cc1 [Example 341, N^4-[1-(4-cyanobenzyl)-5-methyl-3-(trifluoromethyl)-1H-pyrazol-4-yl]-7-fluoro-N^2-(3-hydroxypropyl)quinoline-2,4-dicarboxamide] | 290
Cc1c(NC(=O)c2cc(C(N)=O)nc3cccc(F)c23)c(C(F)(F)F)nn1Cc1cccc(OC(F)(F)F)c1 [Example 1584] | 544
Cc1nn(Cc2ccc(C(=O)N(C)CCN(C)C)cc2)c(C)c1NC(=O)c1cc(C(F)(F)F)nc2ccc(Br)cc12 [Example 1224] | 912
Cc1nn(Cc2ccc(F)cc2C#N)c(C)c1NC(=O)c1cc(C(N)=O)nc2ccccc12 [Example 1661] | 3.4

SMILES | IC50 [nM]
Cc1nn(Cc2ccc(C(=O)N3CC(C#N)C3)cc2)c(C)c1NC(=O)c1cc(C(F)(F)F)nc2ccc(Br)cc12 [Example 1147] | 117
Cc1nn(Cc2ccc(C#N)cc2)c(C)c1NC(=O)c1cc(C(=O)NCCO)nc2cc(F)ccc12 [Example 1399] | 132
COc1cc(C(=O)Nc2c(C(=O)N(C)C)nn(Cc3ccc(F)cc3)c2C)c2ccccc2n1 [Example 1265] | 2480
Cc1nn(Cc2ccc(C(=O)NCc3cn(C)cn3)cc2)c(C)c1NC(=O)c1cc(C(F)(F)F)nc2ccc(Br)cc12 [Example 1125] | 78.5
Cc1nn(Cc2ccc(C(=O)NCc3nccs3)cc2)c(C)c1NC(=O)c1cc(C(F)(F)F)nc2ccc(Br)cc12 [Example 1130] | 86.6
COc1cc(C(=O)Nc2c(C(F)(F)F)nn(Cc3ccc(C#N)cc3F)c2C)c2ccccc2n1 [Example 1359] | 22
COc1cc(C(=O)Nc2c(C)nn(Cc3ccc(F)cc3)c2C)c2ccccc2n1 [Example 27, N-[1-(4-fluorobenzyl)-3,5-dimethyl-1H-pyrazol-4-yl]-2-methoxyquinoline-4-carboxamide] | 16.5
Cc1nn(Cc2ccc(F)cc2)c(C)c1NC(=O)c1cc(C(C)C)nc2ccc(Br)cc12 [Example 2, 6-bromo-N-[1-(4-fluorobenzyl)-3,5-dimethyl-1H-pyrazol-4-yl]-2-(propan-2-yl)quinoline-4-carboxamide] | 2.8
CC(=O)c1ccc(Cn2nc(C(F)(F)F)c(NC(=O)c3cc(C(N)=O)nc4cc(F)ccc34)c2C)cc1 [Example 1605] | 2.6
CC(C)c1nn(Cc2ccc(C#N)cc2)c(C(F)(F)F)c1NC(=O)c1cc(C(N)=O)nc2cc(F)ccc12 [Example 320, N^4-[1-(4-cyanobenzyl)-3-isopropyl-5-(trifluoromethyl)-1H-pyrazol-4-yl]-7-fluoroquinoline-2,4-dicarboxamide] | 8
Cc1cccc(Cn2nc(C)c(NC(=O)c3cc(C(N)=O)nc4cc(F)c(Cl)cc34)c2C)c1 [Example 1473] | 5.2
Cc1ccc2nc(C3CC3)cc(C(=O)Nc3c(C)nn(Cc4ccc(F)cc4)c3C)c2c1 [Example 7, 2-cyclopropyl-N-[1-(4-fluorobenzyl)-3,5-dimethyl-1H-pyrazol-4-yl]-6-methylquinoline-4-carboxamide] | 4.9
CC(=O)c1ccc(Cn2nc(C)c(NC(=O)c3cc(C(N)=O)nc4cc(F)ccc34)c2C)cc1 [Example 1608] | 4
Cc1nn(Cc2cccc(C#N)c2)c(C)c1NC(=O)c1cc(C(N)=O)nc2cccc(F)c12 [Example 1457] | 15.2
Cc1cc(Cn2nc(C(F)(F)F)c(NC(=O)c3cc(C(N)=O)nc4cc(F)ccc34)c2C)ccc1C#N [Example 1695] | 4.7
COc1ccc(Cn2nc(C(F)(F)F)c(NC(=O)c3cc(C(F)(F)F)nc4ccc(Br)cc34)c2C)cc1 [Example 1035] | 5
COc1ccc(Cn2nc(C)c(NC(=O)c3cc(OC)nc4ccccc34)c2C)cc1 [Example 1, 2-methoxy-N-[1-(4-methoxybenzyl)-3,5-dimethyl-1H-pyrazol-4-yl]quinoline-4-carboxamide] | 1.6
Cc1c(NC(=O)c2cc(C(N)=O)nc3cccc(F)c23)c(C(F)(F)F)nn1Cc1ccc(C2CCC2)cc1 [Example 1618] | 22.3
Cc1c(NC(=O)c2cc(C(N)=O)nc3cccc(F)c23)c(C(F)(F)F)nn1Cc1ccc(S(C)(=O)=O)cc1 [Example 1437] | 13.9
CC(=O)c1ccc(Cn2nc(C(F)(F)F)c(NC(=O)c3cc(C(N)=O)nc4ccccc34)c2C)cc1 [Example 1604] | 4.7
CCc1nn(Cc2ccc(C#N)cc2)c(CC)c1NC(=O)c1cc(C(N)=O)nc2ccccc12 [Example 310, N^4-[1-(4-cyanobenzyl)-3,5-diethyl-1H-pyrazol-4-yl]quinoline-2,4-dicarboxamide] | 47.2
Cc1nn(Cc2ccc(F)cc2)c(C)c1NC(=O)c1cc(C2CC2)nc2c(C(F)(F)F)cccc12 [Example 108, 2-cyclopropyl-N-[1-(4-fluorobenzyl)-3,5-dimethyl-1H-pyrazol-4-yl]-8-(trifluoromethyl)quinoline-4-carboxamide] | 671
Cc1nn(Cc2ccc(F)cc2)c(C(=O)NCCO)c1NC(=O)c1cc(C(F)(F)F)nc2ccc(Br)cc12 [Example 1219] | 708
Cc1nn(Cc2cccc(C#N)c2)c(C)c1NC(=O)c1cc(C(F)(F)F)nc2c(Cl)cc(Cl)cc12 [Example 91, 6,8-dichloro-N-[1-(3-cyanobenzyl)-3,5-dimethyl-1H-pyrazol-4-yl]-2-(trifluoromethyl)quinoline-4-carboxamide] | 292
